The values below come from patent publication US6596696B1, “Malto-oligosaccharide derivatives and uses thereof” (Kikkoman Corporation, priority 1999, dated 2003).

Series [1] addresses T1, α-amylase derived from human salivary gland (HSA) (Homo sapiens, UniProt P0DUB6).
T1 construct: purchased International Reagents Corp. Japan Calibzyme AMY
T1 sequence (P0DUB6 16-511): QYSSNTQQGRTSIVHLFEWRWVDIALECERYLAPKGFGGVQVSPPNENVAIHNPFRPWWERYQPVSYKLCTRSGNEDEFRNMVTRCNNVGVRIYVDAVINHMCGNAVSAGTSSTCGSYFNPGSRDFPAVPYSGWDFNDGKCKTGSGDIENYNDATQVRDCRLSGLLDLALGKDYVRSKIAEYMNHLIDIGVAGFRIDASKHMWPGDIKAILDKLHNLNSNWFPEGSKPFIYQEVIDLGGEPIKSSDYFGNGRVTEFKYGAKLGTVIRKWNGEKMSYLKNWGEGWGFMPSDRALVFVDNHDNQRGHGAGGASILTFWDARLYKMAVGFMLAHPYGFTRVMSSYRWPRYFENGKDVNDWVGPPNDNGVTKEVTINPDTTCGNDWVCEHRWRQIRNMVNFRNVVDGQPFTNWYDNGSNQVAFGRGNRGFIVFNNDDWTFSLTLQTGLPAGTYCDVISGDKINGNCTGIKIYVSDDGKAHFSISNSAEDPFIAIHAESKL
Kind of series: In vitro amylase activity inhibition test, HSA (blue starch, Neo Amylase Test). Type of series: biochemical. The note with it: 37° C., 30 minutes, blue starch substrate. On the procedure: (§1) (1) Preparation of Human α-amylase Solution
(§2) Commercial HPA and HSA were dissolved in purified water to a concentration of 350 IU/1 to prepare an α-amylase solution. As commercial HPA and HSA, “Calibzyme AMY” (available from International Reagents Corp. Japan) was used. The α-amylase activity was determined according to the calibration curve of a commercial α-amylase determining reagent “Neo Amylase Test ┌FDAIICHI┘” (available from Daiichi Pure Chemicals Co., Ltd., Japan).
(§3) (2) Preparation of Inhibitor Solution
(§4) DOG2Az obtained in Example 1, GDOG2Az obtained in Example 2 and comparative G2Az (6^3-position non-modified maltoligosaccharide derivative disclosed in JP-A-9-278789) represented by the following formula
(§5) (3) were diluted with distilled water so that the final concentration would become 5 to 0.0001 mM. [drawing 4]
(§6) (3) Determination of Human α-amylase Inhibitory Activity (IC50) of Inhibitor Solution
(§7) 3.0 ml of distilled water, 1.0 ml of the inhibitor solution, Neo Amylase Test ┌DAIICHI┘ (produced by Daiichi Pure Chemicals Co., Ltd., Japan) and one tablet of blue starch were added to 100 μl of HPA or HSA solution, and the mixture was stirred by a mixer for about 10 seconds and then heated at 37° C. for 30 minutes. Thereafter, 1.0 ml of 0.5 N sodium hydroxide solution was added and the mixture was further stirred. Then the reaction was stopped, the solution was centrifuged (1,500 G, 5 minutes) and absorbance of the supernatant at 620 nm was measured. In blank, distilled water was used in place of the inhibitor solution. “IC50” indicates the final concentration (mM) of the inhibitor material required for inhibiting the activity of HPA or HSA solution by 50%.

Series [2] has as its target T2, α-amylase derived from human pancreatic juice (HPA) (Homo sapiens, UniProt P04746).
T2 construct: purchased International Reagents Corp. Japan Calibzyme AMY
T2 sequence (P04746 16-511): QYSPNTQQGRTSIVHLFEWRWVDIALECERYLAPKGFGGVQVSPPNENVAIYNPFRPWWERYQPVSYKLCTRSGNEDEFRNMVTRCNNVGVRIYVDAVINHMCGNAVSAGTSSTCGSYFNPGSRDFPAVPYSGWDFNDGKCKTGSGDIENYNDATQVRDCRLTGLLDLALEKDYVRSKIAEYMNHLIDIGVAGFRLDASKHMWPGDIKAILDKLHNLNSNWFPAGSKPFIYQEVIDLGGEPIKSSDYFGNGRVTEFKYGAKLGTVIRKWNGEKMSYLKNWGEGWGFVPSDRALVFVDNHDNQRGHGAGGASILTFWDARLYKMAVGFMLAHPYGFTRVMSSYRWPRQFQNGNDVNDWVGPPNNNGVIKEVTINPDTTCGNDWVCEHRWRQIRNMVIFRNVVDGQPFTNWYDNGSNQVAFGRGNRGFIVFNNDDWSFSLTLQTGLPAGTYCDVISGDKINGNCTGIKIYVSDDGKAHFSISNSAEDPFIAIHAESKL
The experiment in a line: In vitro amylase activity inhibition test, HPA (blue starch, Neo Amylase Test). In kind it is biochemical. The note with it: 37° C., 30 minutes, blue starch substrate. On the procedure: as §1, §2, §3, §4, §5, §6, §7

Series [3] concerns blood glucose level. The experiment in a line: Anti-diabetic action: inhibition of rise of blood glucose level after corn starch intake in mice. Type of series: in vivo, mice (Crj:CD-1(ICR)). The note with it: for Significant test (t-test): P value, inhibition of rise of blood glucose level; for Blood glucose level before intake: mice fasted 20 hours, 0 min; for Blood glucose level before intake / Blood glucose level 30 minute after intake: n=5, in mg/dL (unit assumed); for Blood glucose level 30 minute after intake: 30 minutes. On the procedure: Commercially available healthy mice (Crj:CD-1(ICR) with body weight of 20.5 to 26.0 g, bred by Japan Charles Liver Co., Ltd.), were used for the test.
The mice were divided into three groups (n=5). After left fasting for 20 hours, the mice of the compound-administered groups were forced to take orally DOG2Az, G2Az and corn starch as saccharide which was made into a liquid state with sterilized distilled water.
Blood was collected from the orbital vein of each mouse before and after the intake of the materials (0 and after 30 minutes), and the amount of glucose in blood was measured to determine the inhibitory effect against the rise of blood glucose level, i.e. anti-diabetic action of the compounds, after intake of corn starch. The inhibitory effect against the rise of blood glucose level was judged by t-test. Glucose concentration in blood was measured by a blood glucose level analyzer “ANTSENSE” (mfd. by Bayer Sankyo Ltd.).

Regarding `C[C@H]1O[C@H](O[C@H]2[C@H](O)[C@@H](O)[C@@H](O[C@H]3[C@H](O)[C@@H](O)CNC[C@H]3O)O[C@@H]2CO)[C@H](O)[C@@H](O)[C@@H]1O[C@H]1O[C@H](CO)[C@@H](O)[C@H](O)[C@H]1O` (hydrate or solvate) [GDOG2Az, (3R, 4R, 5R, 6S)-Hexahydro-3,5,6-trihydroxy-1H-azepine-4-yl O-(α-D-glucopyranosyl)-(1→4)-O-(6-deoxy-α-D-glucopyranosyl)-(1→4)-α-D-glucopyranoside], the melting point – broadly, the temperature of the solid-liquid transition – was 144 to 146 °C (dec.).
Turning to `C[C@H]1O[C@H](O[C@H]2[C@H](O)[C@@H](O)[C@@H](O[C@H]3[C@H](O)[C@@H](O)CNC[C@H]3O)O[C@@H]2CO)[C@H](O)[C@@H](O)[C@@H]1O` [DOG2Az, (3R, 4R, 5R, 6S)-Hexahydro-3,5,6-trihydroxy-1H-azepine-4-yl O-(6-deoxy-α-D-glucopyranosyl)-(1→4)-α-D-glucopyranoside], the results for the IC50 in series [1] and in series [2] were 0.037 mM and 0.024 mM, respectively. In addition, the “Significant test (t-test)” value in series [3] (5 mg/kg oral + corn starch 2,000 mg/kg) is “P < 0.1%”. Besides, the “Blood glucose level before intake” value in series [3] (group given 5 mg/kg oral + corn starch 2,000 mg/kg) was determined as 101 ± 18. In addition, in series [3] (mice, 5 mg/kg oral + corn starch 2,000 mg/kg), the “Blood glucose level 30 minute after intake” value is on record as 136 ± 23. For the same compound, the “rise of blood glucose level in comparison with the control group” value in series [3] (mice, 5 mg/kg oral + corn starch 2,000 mg/kg, result in words) was “suppressed significantly”.
As for `C[C@H]1O[C@H](O[C@H]2[C@H](O)[C@@H](O)[C@@H](O[C@H]3[C@H](O)[C@@H](O)CNC[C@H]3O)O[C@@H]2CO)[C@H](O)[C@@H](O)[C@@H]1O[C@H]1O[C@H](CO)[C@@H](O)[C@H](O)[C@H]1O` [GDOG2Az, (3R, 4R, 5R, 6S)-Hexahydro-3,5,6-trihydroxy-1H-azepine-4-yl O-(α-D-glucopyranosyl)-(1→4)-O-(6-deoxy-α-D-glucopyranosyl)-(1→4)-α-D-glucopyranoside], the IC50 – broadly, the concentration that gives 50% inhibition – in series [1] amounted to 0.028 mM; in series [2] it was 0.026 mM.
For the compound `OCC1OC(OC2C(CO)OC(OC3C(O)CNCC(O)C3O)C(O)C2O)C(O)C(O)C1O` (stereo not drawn) [Example G2Az, reference compound], the IC50 amounted to 0.082 mM in series [1] and 0.043 mM in series [2]. Also, the “Significant test (t-test)” value in series [3] (60 mg/kg oral + corn starch 2,000 mg/kg) was “P < 1%”. The “Blood glucose level before intake” value in series [3] (group given 60 mg/kg oral + corn starch 2,000 mg/kg) was found to be 102 ± 21. Further, the “Blood glucose level 30 minute after intake” value in series [3] (mice, 60 mg/kg oral + corn starch 2,000 mg/kg) is reported as 169 ± 8.
Regarding `C[C@H]1O[C@H](O[C@H]2[C@H](O)[C@@H](O)[C@@H](O[C@H]3[C@H](O)[C@@H](O)CNC[C@H]3O)O[C@@H]2CO)[C@H](O)[C@@H](O)[C@@H]1O` (hydrate or solvate) [DOG2Az, (3R, 4R, 5R, 6S)-Hexahydro-3,5,6-trihydroxy-1H-azepine-4-yl O-(6-deoxy-α-D-glucopyranosyl)-(1→4)-α-D-glucopyranoside], the melting point was 132 to 134 °C (dec.).
